Patent publication US6900210B2, “Pyridinyl, pyrimidinyl and pyrazinyl amides as potassium channel openers” (Bristol-Myers Squibb Company, priority 2002, dated 2005)

Key:
[1] = target: T1, mKCNQ2 channels (Mus musculus, UniProt Q9Z351); test: Whole-cell patch-clamp recordings of mKCNQ2 currents; assay type: cell-based; conditions: HEK 293 stable cell line expressing mKCNQ2; for EC50: @ −40 mV, room temperature; for Imax (%): maximal current from Hill-type fit
T1 construct: expressed in transfected cells
T1 sequence (Q9Z351 whole entry): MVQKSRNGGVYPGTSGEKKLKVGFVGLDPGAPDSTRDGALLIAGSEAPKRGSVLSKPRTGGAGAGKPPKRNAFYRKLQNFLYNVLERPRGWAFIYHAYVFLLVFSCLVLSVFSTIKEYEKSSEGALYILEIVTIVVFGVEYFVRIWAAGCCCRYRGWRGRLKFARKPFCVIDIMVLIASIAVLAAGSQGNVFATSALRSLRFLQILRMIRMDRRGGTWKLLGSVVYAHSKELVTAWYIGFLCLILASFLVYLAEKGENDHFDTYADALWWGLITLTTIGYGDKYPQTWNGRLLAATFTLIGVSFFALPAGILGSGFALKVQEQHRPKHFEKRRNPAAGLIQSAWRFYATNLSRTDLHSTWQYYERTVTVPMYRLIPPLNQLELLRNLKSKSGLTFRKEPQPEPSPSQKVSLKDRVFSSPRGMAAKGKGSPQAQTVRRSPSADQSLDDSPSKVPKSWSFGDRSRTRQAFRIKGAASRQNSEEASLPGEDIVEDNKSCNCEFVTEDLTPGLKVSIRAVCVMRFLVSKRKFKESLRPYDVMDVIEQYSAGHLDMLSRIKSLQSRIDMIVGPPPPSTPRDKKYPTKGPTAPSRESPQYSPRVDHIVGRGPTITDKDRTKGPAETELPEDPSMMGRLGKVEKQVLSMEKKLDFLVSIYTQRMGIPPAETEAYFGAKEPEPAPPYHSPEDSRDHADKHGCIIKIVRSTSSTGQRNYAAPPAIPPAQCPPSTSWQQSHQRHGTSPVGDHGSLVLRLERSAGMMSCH
Procedure: Whole-cell patch-clamp recordings were made from an HEK 293 stable cell line expressing mKCNQ2 channels, maintained in culture for 1-2 days. Patch pipettes had initial resistances of 2.5-4 MQ. Currents were recorded with an EPC9 amplifier (HEKA, Lambrecht, Germany) controlled with software (Pulse, HEKA) run on a standard lab PC. Series resistance compensation was used during current recording, and set at 80%. The series resistance (R) and cell capacitance (C) were determined electronically by subtracting the capacitive currents at the onset and offset of a 5 mV voltage step. The cancellation of wholecell capacitive transients was virtually complete in all cells. Analog current signals were low-pass filtered at 2.9 kHz using a four-pole Bessel filter −3 dB) and stored on a local network server computer at a sampling rate of 1.5 kHz. All recordings were performed at room temperature (20-22° C.). The pipette solution contained (mM): KCl, 150; CaCl2, 2.5; EGTA, 5; MgCl2, 1; HEPES, 10; pH to 7.3 with KOH, and Osmolality of 290-300 mOsm. The extracellular solution contained (mM): NaCl, 140; KCl, 2.5; CaCl2, 2.5; MgCl2, 1; glucose, 10; HEPES, 10; pH to 7.3 with NaOH, and Osmolality of 305-310 mOsm
Concentration response data were generated by measuring the difference in the steady-state amplitude of current in the presence of compound at the end of a 600 ms voltage-clamp step from a holding potential of −80 mV. The concentration-response data were fitted with Hill-type equations: I=Imax/(1+EC50/[A]^nH), where I is the steady-state current at a given concentration of agonist [A]; and Imax, EC50 and nH are parameters estimated from the curve fit. In some cases the concentration-response data were fitted with equations consisting of the sum of two Hill-type components. Current-voltage (IN) relationships for agonist-evoked currents were obtained by performing 600 ms voltage steps (−110 mV to +40 mV) in the absence and presence of agonist.

[2] = test system: nerve injury-induced tactile allodynia; test: Chung model of neuropathic pain (Chung surgery and von Frey test); assay type: in vivo, Sprague Dawley rats; conditions: i.v., rat, von Frey thresholds over 90 min, % MPE (Drug AUC) − % MPE (Vehicle AUC)
Procedure: To test agents for activity against peripheral mononeuropathy nerve injury-induced tactile allodynia, male Sprague Dawley rats (wt. 120-160 g) were surgically prepared with unilateral tight ligation of spinal nerves L5 and L6 following the method of Kim and Chung (Kim S. H., Chung J. M. (1992) Pain, September; 50(3):355-63). After 3-4 weeks recovery, paw withdrawal to light touch was assessed as described by Chaplan et al. (Chaplan S. R., et al., (1994) J. Neurosci Methods, July; 53(1):55-63). In brief, rats are placed in a plastic cage with a wire mesh bottom and allowed to acclimate for 15-30 minutes, until cage exploration and grooming stops. […] After acclimation, baseline von Frey thresholds were assessed for the injured hindpaw at −15 min. […] Following drug administration, von Frey thresholds are measured at 15, 30, 60 and 90 min. Data were analyzed by a 2-way repeated measures analysis of variance followed by Dunnett's test (p<0.05). […]
Reversal of neuropathic pain behavior may be expressed as a percentage (0-100%) of the maximum possible effect, over and above the vehicle effects. […]
For example, a compound which immediately reversed neuropathic pain behavior to normal levels, such that animals only responded to the highest von Frey filament (15 g), and maintained normal levels through out the post-drug testing period (90 min) would be calculated as Δ% MPE=100%.

Row | Compound | EC50 [1] [µM] | Imax (%) [1] [%] | AUC (Δ % MPE) ([2]; 10 mg/kg) | AUC (Δ % MPE) ([2]; 100 mg/kg)
1 | C[C@H](NC(=O)/C=C/c1cc(F)ccc1F)c1cccc(Oc2ccccn2)c1 [Example 9, (S)-3-(2,5-Difluoro-phenyl)-N-{1-[3-(pyridin-2-yl-oxy)-phenyl]-ethyl}-acryl-amide] | 0.0012 | 200 | – | –
2 | C[C@H](NC(=O)/C=C/c1ccccc1F)c1cccc(Oc2cccnc2)c1 [Example 15, (S)-3-(2-Fluoro-phenyl)-N-{1-[3-(py-ridin-3-yloxy)-phen-yl]-ethyl}-acrylamide] | 0.198 | 812 | 47 (10 mg/kg, i.v.) Δ % MPE | –
3 | C[C@H](NC(=O)/C=C/c1cc(F)ccc1F)c1cccc(Oc2ccncc2)c1 [Example 45, (S)-3-(2,5-Difluoro-phenyl)-N-{1-[3-(pyridin-4-yl-oxy)-phenyl]-ethyl}-acryl-amide] | 0.11 | 784 | – | –
4 | NCC1(CC(=O)O)CCCCC1 [Gabapentin, gabapentin, reference compound] | – | – | – | 50 (100 mg/kg, i.v.) Δ % MPE
5 | (S)-4-Phenyl)-N-[1-(3-py- ridin-3-yl-phenyl)-eth- yl]-butyramide [Example 25] | 0.001 | 172 | – | –
